Key:
Format in all cases: biochemical, mouse
[1] = system: mitochondrial ATP synthase; test: Maximal ATP hydrolysis capacity in frozen heart mitochondria; details: oligomycin at different concentrations in the assay media
Description: Plates were loaded with 0.75-1.5 μg of mouse heart mitochondria, or 25 μg of cell lysate. Cell lysates were prepared by subjecting the samples to 4 cycles of free thaw (liquid nitrogen—37° C. water bath) before measuring protein concentration. When assessing compounds effect on respirometry, the compounds were added in MAS after sample centrifugation. Initial respiration of the samples was sustained by the addition of 5 mM succinate+2 μM rotenone in the MAS after centrifugation. Injections were performed at the following final concentration in the well: Antimycin A (2 μM), oligomycin (5 μM), FCCP (1 μM), ATP (20 mM). To assess maximal ATP concentration, ATP was injected consecutively. An additional assay was developed to determine the maximal ATP hydrolysis capacity in frozen mitochondria. Maximal ATP hydrolytic capacity was assessed in frozen heart mitochondria where mitochondrial respiration is inhibited by Antimycin A and maximal ATP hydrolysis is driven by co-injection of FCCP and ATP, followed by inhibition in the presence of oligomycin.

[2] = system: mitochondrial ATP synthase; test: ATP synthesis (oxygen consumption, Seahorse XF96) in fresh heart mitochondria; details: Complex I or Complex II substrates (FIG. 1, FIG. 2)
Description: (§1) To assess whether the fraction of synthetic and reverse hydrolytic activities of mitochondrial ATP synthase can be measured in the same preparation, a protocol was developed to monitor changes in oxygen consumption and proton release in response to changes in mitochondrial ATP synthase activity. The proton released and the concomitant changes in the pH can be monitored using the ECAR (extracellular acidification) channel in the Agilent Seahorse XF analyzer using isolated mitochondria, to ensure that the changes in pH cannot be attributed to glycolysis or other contributors to ECAR.
Mice were anesthetized with isoflurane followed by a cervical dislocation, and the heart was immediately removed and placed in ice cold relaxation buffer (5 mM sodium pyrophosphate, 100 mM KCl, 5 mM EGTA, 5 mM HEPES; pH 7.4). […] The mitochondrial pellets were re-suspended in ice cold HES buffer and mitochondrial protein was measured with a BCA assay (Pierce). […]
Oxygen consumption was measured in isolated fresh intact mitochondria from mouse heart, as oxygen consumption is linked to maximal ATP synthesis and proton release when mitochondria are respiring either in the presence of substrates and ADP (ATP synthesizing mitochondria or state 3) or in the presence of substrates but not ADP (state 4). […]

[3] = system: mitochondrial ATP synthase; test: ATP hydrolysis (acidification, Seahorse XF96) in fresh heart mitochondria; details: fresh heart mitochondria (FIG. 1, FIG. 2)
Description: as §1
Mice were anesthetized with isoflurane followed by a cervical dislocation, and the heart was immediately removed and placed in ice cold relaxation buffer (5 mM sodium pyrophosphate, 100 mM KCl, 5 mM EGTA, 5 mM HEPES; pH 7.4). The heart was squeezed with tweezers to remove blood, minced with scissors, and then placed in a glass-glass Dounce homogenizer with 3 mL of HES homogenization buffer (250 mM sucrose, 5 mM HEPES, 1 mM EDTA; pH to 7.2, adjusted with KOH). The heart tissue was homogenized first with the loose pestle and followed by the tight pestle. The homogenized tissue was placed in a pre-chilled 15 mL conical tube and centrifuged at 900×g (4° C.) for 10 minutes (min). The supernatant was removed, placed in a new tube and centrifuged again at 900×g for 10 min. The supernatant was then transferred to 2 mL microcentrifuge tubes and centrifuged at 10,000×g (4° C.) for 10 min. The mitochondrial pellets were re-suspended in ice cold HES buffer and mitochondrial protein was measured with a BCA assay (Pierce). The concentrated mitochondrial pellet was stored on ice. […]
ATP hydrolysis capacity or state 4 acidification was measured using Seahorse XF96 as described in Divakaruni et al. (2018) Anal Biochem 552:60-65 and Acin-Perez et al. (2021) Life 11(9):949, in MAS (70 mM Sucrose, 220 mM Mannitol, 5 mM KH2PO4, 5 mM MgCl2, 1 mM EGTA, 2 mM HEPES; pH 7.2). […]

CC[C@H]1/C=C/C=C/C[C@@H](C)[C@H](O)[C@@](C)(O)C(=O)[C@@H](C)[C@H](O)[C@@H](C)C(=O)[C@@H](C)[C@H](O)[C@@H](C)/C=C/C(=O)O[C@@H]2[C@H](C)[C@H](CC1)O[C@]1(CC[C@H](C)[C@H](C[C@@H](C)O)O1)[C@H]2C [Oligomycin, oligomycin, reference compound]
ATP hydrolysis [1]: dose dependent inhibition of ATP hydrolysis
ATP synthesis [2]: worked as expected
ATP hydrolysis [3]: worked as expected

Reference: patent US20240270786A1, “STEROID COMPOUNDS” (Epirium Bio Inc., priority 2022, published 2024)
